From patent EP4613730A1, “LIPIDIC ALKYNYLCARBINOLS WITH ANTI-BACTERIAL AND ANTI-TUBERCULOSIS ACTIVITY” (priority 2024, dated 2025)
Values after ≈ are worked out from the molar mass of the structure shown. Where two headings read alike, the source gives them in different places.

Columns and labels:
Format in all cases: cell-based
[1] = test system: Mycobacterium tuberculosis strain H37Rv; assay: Mycobacterial growth inhibition assay (colorimetric MTT micro assay, MIC)
[2] = Cytotoxicity evaluation on HCT-116 cell line (SRB); conditions: human, HCT-116 colon cancer cells, HCT-116 cells, 72 hours treatment, read-out: Anti-HCT116 CC50
Method: (§1) The biological activity of the compounds of the present invention were evaluated. The activity against mycobacteria (Mtb) was assessed by minimum inhibitory concentration values (MIC, µM) determination. The selectivity index (SI) is defined as: SI = (CC50)/(MIC) [formula] wherein CC50 refers to the half maximal cytotoxic concentration of compounds towards particular eukaryotic cells, either for HCT116 cells and/or VERO cells; MIC refers to the minimum inhibitory concentration of the compounds towards mycobacteria.
Human HCT-116 colon cancer cells were seeded in 96-well plates (2500 cells/well) 24 hours before being treated for 72 hours with the tested compounds. Cells were grown and treated in DMEM 10% FBS. For each compound, 11 concentrations, corresponding to twofold serial dilutions from the maximum concentration, were evaluated, with each concentration tested in duplicate. DMSO was set at 0.5% final concentration in each well, including in the untreated conditions. At the end of the treatment, cells were fixed 1 hour at 4°C by addition of cold 10 % trichloroacetic acid to a final 3.33 % concentration, then washed 4 times with water. The plates were dried and the cells stained for 30 minutes with 0.057 % (wt/vol) Sulforhodamine B (SRB) in 1% acetic acid, then washed 4 times with 1% acetic acid and dried. The dye was resuspended by a 1 h 30 incubation in 200 µL of 10 mM Tris-base and the absorbance at 490 nm measured with a plate reader (µquant, Bio-tek). For normalization, the background value was subtracted to each value, the duplicates averaged and the untreated condition set to 100% cell viability. CC50 were computed from at least three independent experiments using the GraphPad Prism software using a non-linear regression to a four-parameter logistic curve (log[inhibitor] vs response; variable slope).

[3] = Cytotoxicity evaluation on Vero cell line (MTT); conditions: African green monkey, Vero cells, read-out: Anti-VERO CC50
Method: as §1
Cytotoxicity evaluation of the tested molecules by MTT assay was performed on the Vero cell line. Briefly, cells (5.10^4 cells/mL) in 100 µL of complete medium [MEM supplemented with 10% fetal calf serum (FCS), 2 mM L-glutamine and antibiotics (100U/mL penicillin and 100 µg/mL streptomycin)] were seeded into each well of 96-well plates and incubated at 37 °C in a humidified 5% CO2 with 95% air atmosphere. After a 24 h incubation, 100 µL of medium with various product concentrations and appropriate controls were added and the plates were incubated for 72 h at 37 °C. Each plate-well was then microscope-examined for detecting possible precipitate formation before the medium was aspirated from the wells. 100 µL of MTT solution (0.5 mg/mL in complete MEM) were then added to each well. Cells were incubated for 1 h at 37 °C and the MTT solution was then removed, and DMSO (100 µL/well) was added to dissolve the resulting formazan crystals. Plates were shaken vigorously (300 rpm) for 5 min. The absorbance was measured at 570 nm with a microplate spectrophotometer (BIOTEK Eon). DMSO was used as blank and SDS as positive control. CC50 were calculated by non-linear regression analysis processed on dose-response curves, using TableCurve 2D V5 software.

M. abscessus = assay: Antibacterial activity MIC, M. abscessus; conditions: Mycobacteroides abscessus
E. coli = assay: Antibacterial activity MIC, E. coli; conditions: Escherichia coli
C. glutamicum = assay: Antibacterial activity MIC, C. glutamicum; conditions: Corynebacterium glutamicum
M. smegmatis = assay: Antibacterial activity MIC, M. smegmatis; conditions: Mycolicibacterium smegmatis
M. kansasii = assay: Antibacterial activity MIC, M. kansasii; conditions: Mycobacterium kansasii
[4] = M. tuberculosis H37Rv, 7H9 broth, 6 days incubation then MTT 24 h, read-out: Anti-Mtb MIC
[5] = read-out: Antibacterial activity MIC M. tuberculosis

Row | SMILES | MIC [1, 4] [µM] | CC50 at 72 h [2] [µM] | CC50 at 72 h [3] [µM] | also measured
1 | CCCCCCCCCCCC(O)C#CCO (racemic) [Compound 1, Pentadec-2-yne-1,4-diol] | 1.25 (≈ 0.3 µg/mL) | 60 | 89 | MIC ([1]; M. tuberculosis (Table 4), read-out: Antibacterial activity MIC M. tuberculosis): 1.25 µM (≈ 0.3 µg/mL); MIC (M. abscessus): 2.5 µM (≈ 0.601 µg/mL)
2 | CCCCCCCCCCC[C@@H](O)C#CCO [(R)-1, (R)-Pentadec-2-yne-1,4-diol] | 1.25 (≈ 0.3 µg/mL) | – | – | –
3 | C=C=C[C@@H](O)C#CCCCCCCCCCCCC [(R)-19] | – | – | – | MIC [1, 5]: 2.5 µM (≈ 0.656 µg/mL); MIC (E. coli): > 10 µM; MIC (C. glutamicum): > 10 µM; MIC (M. smegmatis): 10 µM (≈ 2.62 µg/mL); MIC (M. kansasii): 5 µM (≈ 1.31 µg/mL)
4 | CCCCCCCCCCC[C@@H](O)C#C[C@H](O)CC [(R,R)-6, (3R,6R)-heptadec-4-yne-3,6-diol] | 2.5 (≈ 0.671 µg/mL) | – | – | –
5 | CCCCCCCCCCC[C@H](O)C#C[C@H](O)CC [(R,S)-6, (3R,6S)-heptadec-4-yne-3,6-diol] | 2.5 (≈ 0.671 µg/mL) | – | – | –
6 | CCCCCCCCCCC[C@H](O)C#CCO [(S)-1, (S)-Pentadec-2-yne-1,4-diol] | 1.25 (≈ 0.3 µg/mL) | – | – | –
7 | C=C=C[C@H](O)C#CCCCCCCCCCCCC [(S)-19] | – | – | – | MIC [1, 5]: 2.5 µM (≈ 0.656 µg/mL); MIC (E. coli): > 10 µM; MIC (C. glutamicum): > 10 µM; MIC (M. smegmatis): 10 µM (≈ 2.62 µg/mL); MIC (M. kansasii): 2.5 µM (≈ 0.656 µg/mL)
8 | C#C[C@H](O)C#CCCCCCCCCCCCC [(S)-20] | – | – | – | MIC [1, 5]: 1.2 µM (≈ 0.298 µg/mL); MIC (E. coli): > 10 µM; MIC (C. glutamicum): 10 µM (≈ 2.48 µg/mL); MIC (M. smegmatis): 2.5 µM (≈ 0.621 µg/mL); MIC (M. kansasii): 1.2 µM (≈ 0.298 µg/mL)
9 | CCCCCCCCCCC[C@@H](O)C#C[C@@H](O)CC [(S,R)-6, (3S,6R)-heptadec-4-yne-3,6-diol] | 2.5 (≈ 0.671 µg/mL) | – | – | –
10 | CCCCCCCCCCC[C@H](O)C#C[C@@H](O)CC [(S,S)-6, (3S,6S)-heptadec-4-yne-3,6-diol] | 2.5 (≈ 0.671 µg/mL) | – | – | –
11 | C=CC(O)C#CC(O)CCCCCCCCCCC (stereo not drawn) [Compound 2, Heptadec-1-en-4-yne-3,6-diol] | – | 2 | 7.6 | MIC ([1]; read-out: Anti-Mtb MIC): 1.25 µM (≈ 0.333 µg/mL)
12 | C=C=CC(O)C#CC(O)CCCCCCCCCCC (stereo not drawn) [Compound 3, Octadeca-1,2-dien-5-yne-4,7-diol] | – | 9 | 8 | MIC ([1]; read-out: Anti-Mtb MIC): 2.5 µM (≈ 0.696 µg/mL)
13 | C#CC(O)C#CC(O)CCCCCCCCCCC (stereo not drawn) [Compound 4, Heptadeca-1,4-diyne-3,6-diol] | – | 4 | 2.5 | MIC ([1]; read-out: Anti-Mtb MIC): 0.3 µM (≈ 0.0793 µg/mL)
14 | CCCCCCCCCCCC(O)C#CC(O)c1ccccc1 (stereo not drawn) [Compound 5, 1-Phenylpentadec-2-yne-1,4-diol] | 1.25 (≈ 0.396 µg/mL) | 50 | 46.5 | –
15 | CCCCCCCCCCCC(O)C#CC(O)C1CC1 (stereo not drawn) [Compound 7, 1-Cyclopropylpentadec-2-yne-1,4-diol] | 0.3 (≈ 0.0841 µg/mL) | 50 | 43.9 | –
16 | CCCCCCCCCCCC(O)C#CC(O)C(C)(C)C (stereo not drawn) [Compound 8, 2,2-Dimethylheptadec-4-yne-3,6-diol] | 5 (≈ 1.48 µg/mL) | 20 | – | –
17 | CCCCCCCCCCCC(O)C#CC(O)C(CC)CC (stereo not drawn) [Compound 9, 3-Ethyloctadec-5-yne-4,7-diol] | 5 (≈ 1.55 µg/mL) | 20 | – | –
18 | CCCCCCCCCCCC(O)C#CC(O)C1CCCC1 (stereo not drawn) [Compound 10, 1-Cyclopentylpentadec-2-yne-1,4-diol] | 5 (≈ 1.54 µg/mL) | 20 | – | –

Row | SMILES | MIC [1, 4] [µM] | CC50 at 72 h [2] [µM] | CC50 at 72 h [3] [µM] | also measured
19 | CCCCCCCCCCCC(O)C#CC(O)C1CCCCC1 (stereo not drawn) [Compound 11, 1-Cyclohexylpentadec-2-yne-1,4-diol] | 5 (≈ 1.61 µg/mL) | 50 | – | –
20 | C=CC(O)C#CCC(O)CCCCCCCCCC (stereo not drawn) [Compound 12, Heptadec-1-en-4-yne-3,7-diol] | – | 2 | 12.5 | MIC ([1]; read-out: Anti-Mtb MIC): 1.25 µM (≈ 0.333 µg/mL)
21 | C=C=CC(O)C#CCC(O)CCCCCCCCCC (stereo not drawn) [Compound 13, Octadeca-1,2-dien-5-yne-4,8-diol] | – | 12 | – | MIC ([1]; read-out: Anti-Mtb MIC): 0.6 µM (≈ 0.167 µg/mL)
22 | C#CC(O)C#CCC(O)CCCCCCCCCC (stereo not drawn) [Compound 14, Heptadeca-1,4-diyne-3,7-diol] | – | 2 | 174 | MIC ([1]; read-out: Anti-Mtb MIC): 0.6 µM (≈ 0.159 µg/mL)
23 | CCCCCCCCCCC(O)CC#CC(O)c1ccccc1 (stereo not drawn) [Compound 15, 1-Phenylpentadec-2-yne-1,5-diol] | 2.5 (≈ 0.791 µg/mL) | 41 | 75 | –
24 | CCCCCCCCCCC(O)CC#CC(O)CC (stereo not drawn) [Compound 16, Heptadec-4-yne-3,7-diol] | 5 (≈ 1.34 µg/mL) | 51 | 75 | –
25 | CCCCCCCCCCC(O)CC#CC(O)C1CC1 (stereo not drawn) [Compound 17, 1-Cyclopropylpentadec-2-yne-1,5-diol] | 0.6 (≈ 0.168 µg/mL) | 40 | 44.5 | –
26 | C=CC(O)C#CCCCCCCCCCCCC (stereo not drawn) [Compound 18, Heptadec-1-en-4-yn-3-ol] | – | 0.2 | 1 | MIC ([1]; read-out: Anti-Mtb MIC): 2.5 µM (≈ 0.626 µg/mL)
27 | C=C=CC(O)C#CCCCCCCCCCCCC (stereo not drawn) [Compound 19, Octadeca-1,2-dien-5-yn-4-ol] | 2.5 (≈ 0.656 µg/mL) | 2.7 | – | –
28 | C#CC(O)C#CCCCCCCCCCCCC (stereo not drawn) [Compound 20, Heptadeca-1,4-diyn-3-ol] | – | 0.1 | 0.8 | MIC ([1]; read-out: Anti-Mtb MIC): 1.2 µM (≈ 0.298 µg/mL)
29 | CCCCCCCCCCCCC#CC(O)c1ccccc1 (stereo not drawn) [Compound 21, 1-Phenylpentadec-2-yn-1-ol] | 1.2 (≈ 0.361 µg/mL) | 50 | 58.7 | –
30 | CCCCCCCCCCCCC#CC(O)C1CC1 (stereo not drawn) [Compound 23, 1-Cyclopropylpentadec-2-yn-1-ol] | > 10 | 60 | 158 | –
31 | CCCCCCCCCCCCC#CC(O)C(C)(C)C (stereo not drawn) [Compound 24, 2,2-Dimethylheptadec-4-yn-3-ol] | > 10 | 60 | – | –
32 | CCCCCCCCCCCCC#CC(O)C(CC)CC (stereo not drawn) [Compound 25, 3-Ethyloctadec-5-yn-4-ol] | > 10 | 125 | – | –
33 | CCCCCCCCCCCCC#CC(O)C1CCCC1 (stereo not drawn) [Compound 26, 1-Cyclopentylpentadec-2-yn-1-ol] | > 10 | 100 | – | –
34 | CCCCCCCCCCCCC#CC(O)C1CCCCC1 (stereo not drawn) [Compound 27, 1-Cyclohexylpentadec-2-yn-1-ol] | 10 (≈ 3.07 µg/mL) | 60 | – | –
35 | C=C=CC(O)C#CCCCCCCCCC (stereo not drawn) [Compound 28] | – | – | – | MIC [1, 5]: 5 µM (≈ 1.1 µg/mL); MIC (E. coli): > 10 µM; MIC (C. glutamicum): > 10 µM; MIC (M. smegmatis): > 10 µM; MIC (M. kansasii): 10 µM (≈ 2.2 µg/mL)
